Experimental data taken from patent US20240197761A1, “FUCOSYLATION AND IMMUNE MODULATION IN CANCER” (H. LEE MOFFITT CANCER CENTER AND RESEARCH INSTITUTE, INC., priority 2021, published 2024).

Assays:
[1] = system: BM-myeloid cells; experiment: Expression of MDSC biology-related genes in BM-myeloid cells; format: cell-based, mouse; settings: 24 or 72 hours after initial L-fuc treatment
Procedure: The expression of key MDSC biology-related genes was measured at 24 or 72 hours after in initial L-fuc treatment of the cells. Reductions in ARGI, PARP, and CHOP expression (red boxes; the expression of these genes are known to be required for MDSC immunosuppression. Increase in STAT1 is shown in green.
Next, we investigated the effect of L-fuc on NO production of bone marrow derived MDSCs (FIGS. 8A and 8B). We observed that L-fuc abrogated NO production in all cases. […] We also wanted to look at how L-fuc treatment effected the expression of immunosuppression genes (FIG. 9). We assessed the expression of key MDSC biology-related genes at 24 or 72 hours after in initial L-fuc treatment of the cells. Generally, we observed reductions in ARGI, PARP, and CHOP expression. In contrast we observed upregulation of STAT1. To further assess how L-fuc/fucosylation affects myeloid phenotype, we modulated fucosylation using DMSO (control), 2-fluoro-fucose (2FIF, fucosylation inhibitor), or L-fuc in mouse bone marrow-derived myeloid progenitors treated ±GM/G-CSF (FIG. 10). We profiled changes In M-MDSC vs. PMN-IMDSC, as well as moDC, as we observed immunostimulatory activity. […] Shown are the average values irom 12 mice. We also observed that L-fucose alters TLR profiles of dendritic cells (FIG. 11).

[2] = system: PD-L1 on WM793, SW1 and SM1 cells; experiment: Cell surface PD-L1 (flow cytometry); format: cell-based; settings: human or mouse melanoma cells, 250 μM
Source text: FIGS. 22A-221 show Schematic of L-PLA staining and verification of fucosylated HLA-DRB1 staining, which is weakly associated with tumor peripheral CD4+T cells; and the effects of L-fucose on tumor PD-L1 expression (a) Schematic of lectin-mediated proximity ligation analysis (L-PLA) using fucosylated HLA-DRB1 (fuco-HLA-DRB1) as an example. We stained for (i) HLA-DRB1 using […]-HLA-DRB1 followed by (+) oligo-conjugated PLA secondary and (ii) fucosylated glycan using biotinylated (“B”) AAL lectin followed by D-biotin followed by (−) oligo-conjugated PLA secondary. Ligated PLA oligos were subjected to rolling circle amplification PCR (RCA PCR), giving rise to fluorescent punctae. […] Single melanoma marker, AAL-FITC, and HLA-DRB1 channels are shown in white for clearer visualization. […] (d) FFPE melanoma tissues were subjected to L-PLA HLA-DRB1 staining ±500 mM L-fucose wash and subsequent staining with melanoma marker (MART1+SI10 cocktail), and DAPI. Single melanoma marker and fuco-HLA-DRB1 channels are shown in white for clear visualization. […]
HLA-DRB1, and PD-L1: Indicated cells were treated for 72 h with DMSO, 250 μM fucosyltransferase inhibitor (FUTi) (Millipore Sigma (St. Louis, MO)), or 250 μM of L-fucose (Biosynth (Oak Terrace, IL)). […] Samples were analyzed using FlowJo analysis software (BD Biosciences (San Jose, CA)). […]

C[C@H](O)[C@@H](O)[C@@H](O)[C@H](O)C=O [L-fucose]
ARGI, PARP, and CHOP expression [1]: reductions | STAT1 expression [1]: upregulation | cell surface levels of PD-L1 [2]: does not alter
